Counter-ions that a name gives are not always drawn. Like-named read-outs stand apart in the source and are kept apart here.
Assays:
[1] = In vivo screening of bifunctional chelates: biodistribution, percent injected dose in liver; conditions: rat, i.v. tail vein, 2 hours
Protocol: (§3) Also samarium was injected as samarium chloride in unchelated form.
(§4) Sprague-Dawley rats weighing from 150 to 200 g were purchased from Charles River Laboratories. These animals were placed in cages and fed water and food ad libitum. The animals were acclimated for at least five days before use. Prior to injection of complex, the animals were placed under a heat lamp (15 to 30 minutes) to dilate the tail vein. Then, the animal was placed in a restraining cage, the tail cleaned with an alcohol swipe, and the animal injected (50 to 200 μl) via the tail vein. After injection, the animal was placed in another cage for two hours after which time the animal was sacrificed by cervical dislocation. The animal was then dissected, the parts rinsed with deionized H2 O, patted dry, and weighed into a tared counting vial. Whatever size of injection was made, at least three standards of the same material were prepared and counted with the animal parts.

[2] = Percent complex determination, samarium complexes (Sephadex C-25 cation exchange); format: physicochemical
Protocol: (§1) A disposable 10 ml plastic (Biorad) column was filled with 1 to 2 ml of water-swelled Sephadex™ C-25 cation exchange resin. The water was pressure eluted to the top of the resin. Fifteen μl of the complex (or more if counts were low) were added to the top of the resin. This was followed by 2 ml of 4:1 (V:V) isotonic saline:conc. ammonium hydroxide solution as an eluent which was allowed to drip into a counting tube. This was also pressure eluted to the top of the resin. An additional 2 ml of the eluent were added and the column pressure eluted to remove all liquid. The dried resin was then placed in a third counting tube and the three tubes counted on a NaI well counter using a Canberra multichannel analyzer linked to a computer. The percent complex was determined by dividing the number of counts in the two elutions by the total counts in the elutions plus the column, all times 100.
Samarium complexes were formed as described previously for yttrium complexes except that 0.0003M samarium was prepared by dissolution of Sm2 03 (348.7 g mole) in 0.1M hydrochloric acid. […] Percent complex determination was made in the same manner as for the yttrium complex.

[3] = Inertness of samarium complex to pH change; format: physicochemical
Protocol: as §1, with “100. By this method, uncomplexed yttrium was retained on the column.” for “100.”
(§2) One portion was treated with 1-2 μl portions of 0.1N hydrochloric acid until the pH was lowered and the other portion was treated with 0.1N sodium hydroxide to bring the pH up. The complexes were allowed to set for 5-10 minutes at each pH change, then they were sampled to determine the percent complexation at that pH by the method described for Examples 16 through 33.
as §2, with “1-2 μportions” for “1-2 μl portions”, “of 1.0N” for “of 0.1N”, “with 0.1N, 1.0N and 50 weight %” for “with 0.1N”, “for about 5” for “for 5-10”

[4] = rat, in vivo, 120 min
Protocol: Complexes were prepared by mixing a solution of ligand and metal then adjusting the pH to 7-8. The amount of metal that was complexed to ligand was determined by cation exchange chromatography. Free metal was retained by the resin, metal in the form of a complex was not.
One-hundred μl of the complexes were injected into the tail vein of three Sprague Dawley rats. Two hours after injection, the rats were killed by cervical dislocation and samples of tissues were taken. The tissues were weighed and the amount of radiation in each tissue determined by measuring the number of counts using a NaI well counter and comparing them to standards. […] The amount in bone was 25 times the % dose in a femur. […] Non-radioactive metal was used to obtain the desired ligand to metal ratios and tracer radioactive metal was used to obtain the biodistribution.

[5] = rat, in vivo, iv, 120 min
Protocol: as §3, §4

[6] = Percent complex determination, yttrium complexes (Sephadex C-25 cation exchange); format: physicochemical; conditions: Y
Protocol: The yttrium and/or samarium complexes of several of the compounds were prepared and percent complexation determined as follows:
Complexes were made by preparing a 0.0003M yttrium solution in water. (YCl3 ·6H2 O, 303.26 g/mole; Y(OAc)3, 12.1% H2 0). Radioactive YCl3 (Oakridge National Laboratories) was added to give the desired number of counts. Ten μl of ligand solution (at 0.03M) were added to 990 μl of the Y solution, giving a ligand-to-metal ratio of 1:1. (Ten times the amount of ligand solution was used for a 10:1 ligand to metal ratio.) The pH was then adjusted to 7.4 using microliter quantities of hydrochloric acid or sodium hydroxide. The solution was then tested for the amount of complexed yttrium using the cation exchange method given below.
as §1, with “100. By this method, uncomplexed yttrium was retained on the column.” for “100.”

[7] = Lability of yttrium complexes on addition of excess metal; format: physicochemical; conditions: Y
Protocol: as §1, with “100. By this method, uncomplexed yttrium was retained on the column.” for “100.”
The 1:1 complex of yttrium with 1-(p-aminobenzyl)diethylenetriaminepentaacetic acid (ABDTPA), a well known bifunctional chelant used in the literature, and with the ligand of Example 2 (Now Ex. XVI) and Example 12 (now Ex. XVII) were prepared using the techniques described earlier. Several 100 microliter aliquots were then withdrawn into separate centrifuge tubes. Excess metal was added such that the total volume change is minimized and the time noted. One-half hour after metal addition, the percent complex was determined by the Sephadex™ C-25 method and this was compared to the original amount of complex. The percent complex versus added metal gives an indication as to the lability of the ligand-metal complex. Results are given below and are compared to the EDTA-yttrium complex.

[8] = Sm, ligand/metal ratio about 50:1
[9] = Sm, ligand/metal ratio not stated

In the case of “2-[(2-[(2-[(2-{[BIS(CARBOXYMETHYL)]AMINO}ETHYL) (CARBOXYMETHYL)AMINO]ETHYL) (CARBOXYMETHYL)AMINO]ETHYL)(CARBOXYMETHYL)AMINO]-2-[5-ACETAMIDO2-(CARBOXYMETHYLOXY) PHENYL]ETHANOIC ACID AND 2[(2-[(2-{[BIS(CARBOXYMETHYL)]AMINO}ETHYL)(CARBOXYMETHYL) AMINO]ETHYL)(2-{[BIS(CARBOXYMETHYL)]AMINO}ETHYL)AMINO]-2-[5-ACETAMIDO-2-(CARBOXYMETHYLOXY) PHENYL]ETHANOIC ACID [Example 9]”, the “% Injected Dose in Liver” value ([1]; Sm, ligand/metal 10:1) is reported as 2.8% and the “% Complex” value ([2]; Sm, ligand/metal 10:1) is reported as greater than 99%.
For “2-[BIS(2-{[(BIS(CARBOXYMETHYL)] AMINO}ETHYL)AMINO]-2-[5-AMINO-2-(CARBOXYMETHYLOXY) PHENYL]ETHANOIC ACID AND 2-[{2-[(2{[BIS(CARBOXYMETHYL)]AMINO}ETHYL) (CARBOXYMETHYL)AMINO]ETHYL}(CARBOXYMETHYL)AMINO]-2-[5-AMINO-2-(CARBOXYMETHYLOXY)PHENYL]ETHANOIC ACID, SAMARIUM COMPLEX [XXII]”, the “% Complexed” value ([3]; Table V, pH 1, 5-10 minutes) was 98%, the “% Complexed” value ([3]; Table V, pH 2, 5-10 minutes) was 100% and the “% Complexed” value ([3]; Table V, pH 3, 5-10 minutes) was 100%. The “% Complexed” value ([3]; Table V, pH 4, 5-10 minutes) was 100%, the “% Complexed” value ([3]; Table V, pH 5, 5-10 minutes) was 100% and the “% Complexed” value ([3]; Table V, pH 7, 5-10 minutes) was 100%. For the same compound, the “% Complexed” value ([3]; Table V, pH 9, 5-10 minutes) was 100%, the “% Complexed” value ([3]; Table V, pH 11, 5-10 minutes) was 100% and the “% Complexed” value ([3]; Table V, pH 13, 5-10 minutes) was 100%. For the same compound, the “percent Sm that was complexed” value ([2]; about pH 7.5, Example XXII) was 100%.
In the case of “2-[BIS(2-{[(BIS(CARBOXYMETHYL)]AMINO}ETHYL) AMINO]-2-[5-AMINO-2-(CARBOXYMETHYLOXY)PHENYL]ETHANOIC ACID AND 2-[{2-[(2-{[BIS(CARBOXYMETHYL)]AMINO}ETHYL)(CARBOXYMETHYL)AMINO]ETHYL} (CARBOXYMETHYL)AMINO]-2-[5-AMINO-2-(CARBOXYMETHYLOXY)PHENYL]ETHANOIC ACID [Example 7]”, the “% Complex” value [2, 8] is reported as 96%.
For “2-[bis(2-{[(bis(carboxymethyl)]amino}ethyl) amino]-2-[5-acetamido-2-(carboxymethyloxy)phenyl]ethanoic acid and 2-[{2-[(2-{[bis(carboxymethyl)]amino}ethyl)(carboxymethyl)amino]ethyl} (carboxymethyl)amino]-2-[5-acetamido-2-(carboxymethyloxy)phenyl]ethanoic acid [Example 6]”, the “% Injected Dose in Liver” value ([1]; Sm, ligand/metal 10:1) was 0.38% and the “% Complex” value ([2]; Sm, ligand/metal 10:1) was greater than 99%.
For “2-[{2-[(2{[B IS(CARBOXYMETHYL)]AMINO}ETHYL) (CARBOXYMETHYL) AMINO]ETHYL} (CARBOXYMETHYL) AMINO]-2-[5-AMINO-2-(CARBOXYMETHYLOXY)PHENYL]ETHANOIC ACID, SAMARIUM COMPLEX [XXIII]”, the “% Complexed” value ([3]; Table VI, pH 1, about 5 minutes) was 91%, the “% Complexed” value ([3]; Table VI, pH 2, about 5 minutes) was 88% and the “% Complexed” value ([3]; Table VI, pH 3, about 5 minutes) was 92%. The “% Complexed” value ([3]; Table VI, pH 5, about 5 minutes) was 96%, the “% Complexed” value ([3]; Table VI, pH 7, about 5 minutes) was 96% and the “% Complexed” value ([3]; Table VI, pH 9, about 5 minutes) was 99%. For the same compound, the “% Complexed” value ([3]; Table VI, pH 12, about 5 minutes) was 98%, the “% Complexed” value ([3]; Table VI, pH 13, about 5 minutes) was 99% and the percent complexation ([2]; Sm, pH about 7, Example XXIII) was 96%.
In the case of CC(=O)Nc1ccc(O)c(C(NCCN(CC(=O)O)CC(=O)O)C(=O)O)c1 (stereo not shown) [Example 1, 2-[(2-{[bis(carboxymethyl)]amino}ethyl)amino]-2-(5-acetamido-2-hydroxyphenyl)ethanoic acid], the “biodistribution, blood (% dose)” value [4] is reported as 0.57%, the “biodistribution, bone (% dose)” value [4] is reported as 56.1% and the “biodistribution, liver (% dose)” value [4] is reported as 0.87%. For the same compound, the “biodistribution, muscle (% dose)” value [4] was 0.78%, the “biodistribution, spleen (% dose)” value [4] was 0.03% and the “% Injected Dose in Liver” value [5] was 0.87%. The “% Complex” value ([6]; ligand/metal 10:1) was 98%.
For CC(=O)Nc1ccc(OCC(=O)O)c(C(C(=O)O)N(CCN(CC(=O)O)CC(=O)O)CC(=O)O)c1 (stereo not shown) [Example 2, 2-[(2-{[bis(carboxymethyl)]amino}ethyl) (carboxymethyl)amino]-2-[5-acetamido-2-(carboxymethyloxy)phenyl]ethanoic acid], the “% Injected Dose in Liver” value [5] was 0.22%, the “% Complex” value ([2]; Sm, ligand/metal 10:1) was greater than 99% and the “% Complex” value ([6]; ligand/metal 10:1) was greater than 99%. The “% Complex” value ([7]; Metal/Ligand Molar Ratio 1) was 99%, the “% Complex” value ([7]; Metal/Ligand Molar Ratio 10, one-half hour after metal addition) was 94% and the “% Complex” value ([7]; Metal/Ligand Molar Ratio 100, one-half hour after metal addition) was 84%. The “% Complex” value ([7]; Metal/Ligand Molar Ratio 500, one-half hour after metal addition) was 75%.
For Nc1ccc(OCC(=O)O)c(C(C(=O)O)N(CCN(CC(=O)O)CC(=O)O)CC(=O)O)c1 (stereo not shown) [Example 3, 2-[(2-{[BIS(CARBOXYMETHYL)]AMINO}ETHYL) (CARBOXYMETHYL)AMINO]-2-[5-AMINO-2-(CARBOXYMETHYLOXY)PHENYL]ETHANOIC ACID, PENTA SODIUM SALT], the “% Injected Dose in Liver” value [5] was 0.22% and the “% Complex” value ([6]; ligand/metal 10:1) was greater than 99%.
For CC(=O)Nc1ccc(O)c(C(C(=O)O)N(CC#N)CCN(CC(=O)O)CC(=O)O)c1 (stereo not shown) [Example 4, 2-[(2-{[bis(carboxymethyl)]amino}ethyl) (cyanomethyl)amino]-2-(5-acetamido-2-hydroxyphenyl)ethanoic acid], the “% Injected Dose in Liver” value [5] was 1.4% and the “% Complex” value ([6]; ligand/metal 10:1) was greater than 99%.
With Nc1ccc(O)c(C(C(=O)O)N(CCN(CC(=O)O)CC(=O)O)CC(=O)O)c1 (stereo not shown) [Example 5, 2-[(2-{[BIS(CARBOXYMETHYL)]-AMINO}ETHYL) (CARBOXYMETHYL)AMINO]-2-(5-AMINO-2HYDROXYPHENYL)ETHANOIC ACID] the “% Injected Dose in Liver” value [5] was 0.38% and the “% Complex” value ([6]; ligand/metal 10:1) was 99%.
With Nc1ccc(OCC(=O)O)c(C(C(=O)O)N(CCN(CCN(CC(=O)O)CC(=O)O)CC(=O)O)CC(=O)O)c1 (stereo not shown) [Example 8, 2-[{2-[(2-{[BIS(CARBOXYMETHYL)]-AMINO}ETHYL) (CARBOXYMETHYL) AMINO]ETHYL}(CARBOXYMETHYL)AMINO ]-2-[5-AMINO-2- CARBOXYMETHYLOXY)PHENYL]ETHANOIC ACID] the “% Complex” value [2, 8] was greater than 99%.
In the case of CC(=O)Nc1cc(CN(CCN(CC(=O)O)CC(=O)O)CC(=O)O)c(O)c(CN(CCN(CC(=O)O)CC(=O)O)CC(=O)O)c1 [Example 11], the “% Complex” value ([6]; ligand/metal 10:1) is reported as 99% and the “% Complex” value ([6]; ligand/metal ratio about 1:1) is reported as 98%.
In the case of CC(=O)Nc1cc(CN(CCN(CC(=O)O)CC(=O)O)CC(=O)O)c(O)c(CN(CC(=O)O)CC(=O)O)c1 [Example 15, 2-({[BIS(CARBOXYMETHYL)]AMINO}METHYL)-6-{[({[BIS(CARBOXYMETHYL)]AMINO}ETHYL)((CARBOXYMETHYL)AMINO]METHYL}-4-(ACETAMIDO)PHENOL], the “% Injected Dose in Liver” value [5] is reported as 0.37% and the “% Complex” value ([6]; ligand/metal 10:1) is reported as 99%.
For CC(=O)Nc1ccc(O)c(CN(CCN(CC(=O)O)Cc2cc(NC(C)=O)ccc2O)CC(=O)O)c1 [Example U, N,N'-DI(2-HYDROXY, 5-ACETAMIDOBENZYL)ETHYLENEDIAMINE-N,N'-DIACETIC ACID, reference compound], the “% Injected Dose in Liver” value [1, 9] was 12%.
In the case of Nc1ccc(O)c(C(NCCNC(C(=O)O)c2cc(N)ccc2O)C(=O)O)c1 (stereo not shown) [Example X, […][(2-HYDROXY-5AMINOPHENYL)ACETIC ACID], reference compound], the “% Injected Dose in Liver” value [1, 9] is reported as 24%.
For [Cl][Sm]([Cl])[Cl] [SmCl3, samarium chloride, reference compound], the “% Injected Dose in Liver” value ([1]; Sm injected as samarium chloride in unchelated form) was 39%.
